According to publication PMC9925730, “Controlled sequential in situ self-assembly and disassembly of a fluorogenic cisplatin prodrug for cancer theranostics” (Nature Communications, 2023):
Where “and” joins values, the source holds several entries; their conditions need not be identical. Equal entries are not always repeated.

Legend:
ALP [1] = biological target: T1, ALP (Bos taurus, UniProt P19111); experiment: NIR FL, PA and absorption signals of P-CyPt in solution in response to ALP; type: biochemical; conditions: P-CyPt 10 μM; for normalized Abs. at 700 nm (Fig. 2j) / normalized Abs. at 750 nm (Fig. 2j) / normalized FL intensity at 710 nm (Fig. 2k) / normalized PA intensity at 700 nm (Fig. 2l) / normalized PA intensity at 750 nm (Fig. 2l): ALP 100 U/L 37 °C
T1 construct: Alkaline phosphatase from bovine; purchased Sigma-Aldrich; host or cells: bovine intestinal mucosa (tissue-derived)
T1 sequence (P19111 20-506 limits assumed): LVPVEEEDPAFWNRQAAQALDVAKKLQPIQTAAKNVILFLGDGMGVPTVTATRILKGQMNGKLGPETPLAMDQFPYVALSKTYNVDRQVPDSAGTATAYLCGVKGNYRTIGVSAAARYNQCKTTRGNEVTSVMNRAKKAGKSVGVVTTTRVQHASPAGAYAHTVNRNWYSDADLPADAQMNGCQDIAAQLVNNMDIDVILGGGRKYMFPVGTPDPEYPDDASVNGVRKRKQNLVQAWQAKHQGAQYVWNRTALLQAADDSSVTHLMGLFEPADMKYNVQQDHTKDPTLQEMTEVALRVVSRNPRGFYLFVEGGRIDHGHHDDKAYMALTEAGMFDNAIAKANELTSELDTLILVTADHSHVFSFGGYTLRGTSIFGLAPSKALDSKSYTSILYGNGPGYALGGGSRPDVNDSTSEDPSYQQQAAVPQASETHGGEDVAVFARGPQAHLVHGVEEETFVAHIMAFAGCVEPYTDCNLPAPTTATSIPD
Experimental: To monitor the NIR FL and PA imaging signals of P-CyPt in response to ALP, P-CyPt (10 μM) in Tris buffer (1 mL) was incubated with ALP (100 U/L) at 37 °C for 0, 5, 10, 15, 20, and 30 min. To monitor the NIR FL and PA imaging signals of Pt^IVNPs in response to GSH, P-CyPt (10 μM) in Tris buffer (1 mL) was first incubated with ALP (100 U/L) at 37 °C for 30 min and then incubated with 10 mM GSH at 37 °C for another 10, 20, 30, 40, 50, and 60 min. The NIR FL spectra of these solutions at each time point were acquired on a HORIBA Jobin Yvon Fluoromax-4 fluorescence spectrometer, with excitation at 680 nm. For PA imaging, the incubation solutions at each time point were loaded into a fine bore polythene tube ([…], 1.27 mm OD). The tubes were then sealed and immersed in water. The PA images at both 700 and 750 nm were acquired on the Vevo 2100 LAZR system (FUJIFILM VisualSonics).

ALP [2] = biological target: T1, ALP; experiment: Sensitivity of P-CyPt towards ALP (detection limit); type: biochemical; conditions: for Normalized FL intensity at 710 nm (individual replicates) / Normalized FL intensity at 710 nm, mean: Supplementary Fig. 6b
ALP [3] = experiment: Specificity of P-CyPt towards ALP (Trypsin, MMP-2, GGT, CTB, Caspase-3, ALP, ALP + Na3VO4); type: biochemical; conditions: for Normalized FL intensity at 710 nm, single replicate: individual replicates; for Normalized FL intensity at 710 nm, single replicate / Normalized FL intensity at 710 nm, mean: Supplementary Fig. 7b
[4] = tested on: orthotopic HepG2/Luc liver tumors; experiment: NIR FL imaging of orthotopic HepG2/Luc liver tumors in vivo; parameters: species or system mice
Experimental: (100 μM, in 200 μL saline). Whole body FL images of mice prior to (pre) and at 1 h, 2 h, 4 h, 8 h post injection of P-CyPt or […] acquired on the IVIS Lumina XR III imaging system, using a 660 nm excitation filter and a 750 ± 50 nm emission filter. Each experiment was conducted in three mice. The FL intensities were quantified by the region of interest (ROI) measurement using Living Image Software (4.5.2, PerkinElmer, MA, U.S.A). […] (500 μM, in 200 μL saline). The PA images of the s.c. HeLa tumors in mice prior to (pre), and at 1, 2, 4 h post injection were captured on the Vevo 2100 LAZR system (FUJIFILM VisualSonics), with excitation at 700 and 750 nm. The PA intensities were quantified by the equipped software.

CC1(C)C(/C=C/C2=C3Oc4cc(OP(=O)(O)O)c(Cl)cc4C=C3CCC2)=[N+](CCCNC(=O)[C@@H](Cc2ccccc2)NC(=O)[C@@H](Cc2ccccc2)NC(=O)CCC(=O)[O][Pt]([NH2])([NH2])([OH])([Cl])[Cl])c2ccccc21 [P-CyPt]
normalized Abs. at 700 nm (Fig. 2j) (ALP [1]; 0 min): 0.03754 | normalized Abs. at 750 nm (Fig. 2j) (ALP [1]; 0 min): 0.01756 | normalized FL intensity at 710 nm (Fig. 2k) (ALP [1]; 0 min): 0.979 | normalized PA intensity at 700 nm (Fig. 2l) (ALP [1]; 0 min): 0.1461 | normalized PA intensity at 750 nm (Fig. 2l) (ALP [1]; 0 min): 0.1527 | normalized Abs. at 700 nm (Fig. 2j) (ALP [1]; 5 min): 0.6947 | normalized Abs. at 750 nm (Fig. 2j) (ALP [1]; 5 min): 0.2821 | normalized FL intensity at 710 nm (Fig. 2k) (ALP [1]; 5 min): 5.873 | normalized PA intensity at 700 nm (Fig. 2l) (ALP [1]; 5 min): 0.4821 | normalized PA intensity at 750 nm (Fig. 2l) (ALP [1]; 5 min): 0.3333 | normalized Abs. at 700 nm (Fig. 2j) (ALP [1]; 10 min): 0.8107 | normalized Abs. at 750 nm (Fig. 2j) (ALP [1]; 10 min): 0.4361 | normalized FL intensity at 710 nm (Fig. 2k) (ALP [1]; 10 min): 6.541 | normalized PA intensity at 700 nm (Fig. 2l) (ALP [1]; 10 min): 0.5922 | normalized PA intensity at 750 nm (Fig. 2l) (ALP [1]; 10 min): 0.5187 | normalized Abs. at 700 nm (Fig. 2j) (ALP [1]; 15 min): 0.8996 | normalized Abs. at 750 nm (Fig. 2j) (ALP [1]; 15 min): 0.6102 | normalized FL intensity at 710 nm (Fig. 2k) (ALP [1]; 15 min): 6.902 | normalized PA intensity at 700 nm (Fig. 2l) (ALP [1]; 15 min): 0.7009 | normalized PA intensity at 750 nm (Fig. 2l) (ALP [1]; 15 min): 0.788 | normalized Abs. at 700 nm (Fig. 2j) (ALP [1]; 20 min): 0.9422 | normalized Abs. at 750 nm (Fig. 2j) (ALP [1]; 20 min): 0.6514 | normalized FL intensity at 710 nm (Fig. 2k) (ALP [1]; 20 min): 7.672 | normalized PA intensity at 700 nm (Fig. 2l) (ALP [1]; 20 min): 0.8542 | normalized PA intensity at 750 nm (Fig. 2l) (ALP [1]; 20 min): 0.9373 | normalized Abs. at 700 nm (Fig. 2j) (ALP [1]; 30 min): 0.996 | normalized Abs. at 750 nm (Fig. 2j) (ALP [1]; 30 min): 0.688 | normalized FL intensity at 710 nm (Fig. 2k) (ALP [1]; 30 min): 7.9669 | normalized PA intensity at 700 nm (Fig. 2l) (ALP [1]; 30 min): 0.9524 | normalized PA intensity at 750 nm (Fig. 2l) (ALP [1]; 30 min): 1.0015 | NIR FL at 710 nm switched on (ALP [1]; ALP 100 U/L, after 30 min): ~ 8 fold | increase of PA signal at 700 nm (ALP [1]; ALP 100 U/L, after 30 min): more than sixfold | increase of PA signal at 750 nm (ALP [1]; ALP 100 U/L, after 30 min): more than sixfold | Normalized FL intensity at 710 nm (individual replicates) (ALP [2]; ALP concentration 0 U/L): 0.8554 and 0.8726 and 0.8742 | Normalized FL intensity at 710 nm, mean (ALP [2]; ALP concentration 0 U/L): 0.867 | Normalized FL intensity at 710 nm (individual replicates) (ALP [2]; ALP concentration 0.5 U/L): 0.9653 and 1.0053 and 1.0982 | Normalized FL intensity at 710 nm, mean (ALP [2]; ALP concentration 0.5 U/L): 1.023 | Normalized FL intensity at 710 nm (individual replicates) (ALP [2]; ALP concentration 1 U/L): 1.1743 and 1.1873 and 1.137 | Normalized FL intensity at 710 nm, mean (ALP [2]; ALP concentration 1 U/L): 1.166 | Normalized FL intensity at 710 nm (individual replicates) (ALP [2]; ALP concentration 2 U/L): 1.4406 and 1.5171 and 1.5718 | Normalized FL intensity at 710 nm, mean (ALP [2]; ALP concentration 2 U/L): 1.510 | Normalized FL intensity at 710 nm (individual replicates) (ALP [2]; ALP concentration 5 U/L): 2.2381 and 2.3195 and 2.3579 | Normalized FL intensity at 710 nm, mean (ALP [2]; ALP concentration 5 U/L): 2.305 | Normalized FL intensity at 710 nm (individual replicates) (ALP [2]; ALP concentration 10 U/L): 3.458 and 3.6281 and 3.6545 | Normalized FL intensity at 710 nm, mean (ALP [2]; ALP concentration 10 U/L): 3.580 | Normalized FL intensity at 710 nm (individual replicates) (ALP [2]; ALP concentration 15 U/L): 4.5389 and 4.8786 and 4.9735 | Normalized FL intensity at 710 nm, mean (ALP [2]; ALP concentration 15 U/L): 4.797 | Normalized FL intensity at 710 nm (individual replicates) (ALP [2]; ALP concentration 20 U/L): 5.7617 and 5.8661 and 6.3529 | Normalized FL intensity at 710 nm, mean (ALP [2]; ALP concentration 20 U/L): 5.994 | detection limit for ALP (ALP [2]; P-CyPt 10 μM, 30 min, 3σ/k method): ~ 0.098 U/L | Normalized FL intensity at 710 nm, single replicate (ALP [3]; Enzyme type: ALP+Na3VO4): 1.0416 and 1.0656 and 1.1392 | Normalized FL intensity at 710 nm, mean (ALP [3]; Enzyme type: ALP+Na3VO4, mean of 3 replicates): 1.082 | Normalized FL intensity at 710 nm, single replicate (ALP [3]; Enzyme type: ALP+PBS): 1.0305 and 1.3734 and 1.3861 | Normalized FL intensity at 710 nm, mean (ALP [3]; Enzyme type: ALP+PBS, mean of 3 replicates): 1.263 | Normalized FL intensity at 710 nm, single replicate (ALP [3]; Enzyme type: ALP): 7.7619 and 9.0065 and 9.1858 | Normalized FL intensity at 710 nm, mean (ALP [3]; Enzyme type: ALP, mean of 3 replicates): 8.651 | Normalized FL intensity at 710 nm, single replicate (ALP [3]; Enzyme type: CTB): 0.9991 and 1.017 and 1.1059 | Normalized FL intensity at 710 nm, mean (ALP [3]; Enzyme type: CTB, mean of 3 replicates): 1.041 | Normalized FL intensity at 710 nm, single replicate (ALP [3]; Enzyme type: GGT): 0.8869 and 1.0719 and 1.0726 | Normalized FL intensity at 710 nm, mean (ALP [3]; Enzyme type: GGT, mean of 3 replicates): 1.010 | Normalized FL intensity at 710 nm, single replicate (ALP [3]; Enzyme type: MMP-2): 0.9603 and 0.9824 and 1.1444 | Normalized FL intensity at 710 nm, mean (ALP [3]; Enzyme type: MMP-2, mean of 3 replicates): 1.029 | Normalized FL intensity at 710 nm, single replicate (ALP [3]; Enzyme type: Tris (buffer only)): 0.9358 and 0.9007 and 1.1635 | Normalized FL intensity at 710 nm, mean (ALP [3]; Enzyme type: Tris (buffer only), mean of 3 replicates): 1.000 | Normalized FL intensity at 710 nm, single replicate (ALP [3]; Enzyme type: Trypsin): 0.935 and 0.9815 and 1.0282 | Normalized FL intensity at 710 nm, mean (ALP [3]; Enzyme type: Trypsin, mean of 3 replicates): 0.982 | NIR fluorescence signal of P-CyPt after incubation with enzyme (Supplementary Fig. 7, enzyme types), individual replicates (ALP [3]; enzyme: Casepase-3, individual replicate values (n=3)): 1.0789 and 1.0855 and 1.1465 | NIR fluorescence signal of P-CyPt after incubation with enzyme (Supplementary Fig. 7, enzyme types), mean (ALP [3]; enzyme: Casepase-3, mean of 3 replicates): 1.104 | quantified FL intensity of HepG2/Luc liver tumors (Fig. 5b) ([4]; 2 h): 9.80E+08 | quantified FL intensity of HepG2/Luc liver tumors (Fig. 5b) ([4]; 4 h): 8.66E+08 | quantified FL intensity of HepG2/Luc liver tumors (Fig. 5b) ([4]; 8 h): 3.61E+08 | quantified FL intensity of HepG2/Luc liver tumors (Fig. 5b) ([4]; i.v. 100 μM, 200 μL, 1 h): 1.05E+09
